Patent publication US12065428B2, “Anti-viral compounds” (Aligos Therapeutics, Inc., priority 2021, dated 2024)
Where two headings read alike, the source gives them in different places.

Key:
SARS-Cov-2 3CLpro = biological target: T1, SARS-Cov-2 3CLpro (Severe acute respiratory syndrome coronavirus 2, UniProt P0DTD1); assay: SARS-Cov-2 3CLpro and HRV3C duplex assay (SAMDI-MS): 3CLpro; type: biochemical
T1 construct: SARS-Cov-2 3CLpro and HRV3C Duplex Assay

[1] = system: human beta-coronavirus OC43; assay: OC43 coronavirus assay in HeLa cells (cytopathic effect, cell-titer-glo); type: cell-based
[2] = Cytotoxicity plates without OC43 virus in HeLa cells; type: cell-based; conditions: human, HeLa cells (uninfected), class symbols
Procedure: The human beta-coronavirus OC43 was purchased from ATCC (Manassas, VA) and propagated using HCT-8 human colorectal epithelial cells (ATCC). HeLa human cervical epithelial cells (ATCC) were used as susceptible host cell lines and were cultured using EMEM media, supplemented with 10% fetal bovine serum (FBS), 1% (v/v) penicillin/streptomycin (P/S), 1% (v/v) HEPES and 1% (v/v) cellgro Glutagro™ supplement (all Corning, Manassas, VA) at 37° C. For the OC43 antiviral assay, 1.5×10^4 HeLa cells per well were plated in 100 μL complete media in white 96-well plates with clear bottoms at 37° C. for up to 24 h to facilitate attachment and allow cells to recover from seeding stresses. Next day, the cell culture medium was removed. Serially diluted compounds in 100 μL assay media (EMEM, 2% FBS, 1% P/S, 1% cellgro Glutagro™ supplement, 1% HEPES) were added to the cells and incubated for 4H at 37° C. in a humidified 5% CO2 incubator. 100 μL of OC43 virus stock was diluted to a concentration known to produce optimal cytopathic effect, inducing 80-90% reduction in cell viability. 96-well plates were incubated for 6 (HeLa) days at 33° C.; each plate contains uninfected control wells as well as virus-infected wells that were not treated with compound. Cytotoxicity plates without the addition of OC43 virus were carried out in parallel. At the end of the incubation period, 100 μL cell culture supernatant was replaced with 100 μL cell-titer-glo reagent (Promega, Madison, WI) and incubated for at least 10 min at rt prior to measuring luminescence. Luminescence was measured on a Perkin Elmer (Waltham, MA) Envision plate reader. Antiviral % inhibition was calculated as follows: [(Compound treated cells infected sample)−(no compound infected control)]/[(Uninfected control)−(no compound infected control)]*100; Using GraphPad (San Diego, CA) prism software version 8.3.1, the antiviral dose-response plot was generated as a sigmoidal fit, log(inhibitor) vs response-variable slope (four parameters) model and the EC50 was calculated which is the predicted compound concentration corresponding to a 50% inhibition of the viral cytopathic effect.

[3] = system: SARS-CoV-2-GHB-03021/2020; assay: microbe, parasite or virus in culture; type: cell-based
human cathepsin L = biological target: T2, human cathepsin L (Homo sapiens, UniProt P07711); assay: Cathepsin L assay (Z-FR-AMC fluorescence); type: biochemical; conditions: 10 pM human cathepsin L, 30 mins preincubation; class symbols
T2 construct: purchased R&D Systems
T2 sequence (P07711 114-333): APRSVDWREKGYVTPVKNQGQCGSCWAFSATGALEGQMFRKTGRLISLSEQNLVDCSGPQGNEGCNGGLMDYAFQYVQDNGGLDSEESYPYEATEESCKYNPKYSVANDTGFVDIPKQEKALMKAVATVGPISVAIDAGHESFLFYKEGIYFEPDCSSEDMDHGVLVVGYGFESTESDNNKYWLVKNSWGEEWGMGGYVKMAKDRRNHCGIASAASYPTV
Procedure: For the cathepsin L assay, 10 pM of human cathepsin L (R&D Systems; Minneapolis, MN) was preincubated for 30 mins with test compounds. Reactions were initiated by the addition of a peptide substrate Z-FR-AMC (final concentration 2 μM, Anaspec; Fremont, CA). Fluorescence was measured at 2-minute intervals for 30 mins using a 355/460 excitation/emission filter module on an Envision plate reader (Perkin Elmer; Waltham, MA). The IC50 values were calculated for each assay by fitting the curves using a four-parameter equation in GraphPad Prism.

HRV3C = biological target: T3, HRV3C (Human rhinovirus 14, UniProt P03303); assay: biochemical
T3 construct: SARS-Cov-2 3CLpro and HRV3C Duplex Assay
T3 sequence (P03303 1538-1719): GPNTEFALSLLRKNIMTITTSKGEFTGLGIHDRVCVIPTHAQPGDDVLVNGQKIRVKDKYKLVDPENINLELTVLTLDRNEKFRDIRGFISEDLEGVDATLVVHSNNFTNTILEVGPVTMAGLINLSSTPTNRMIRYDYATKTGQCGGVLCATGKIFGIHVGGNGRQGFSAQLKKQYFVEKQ

[4] = 3CLpro, duplex assay, 30 mins preincubation, class symbols, read-out: SARS-Cov-2 IC50
[5] = Betacoronavirus 1, 144 h, OC43 in HeLa cells, 6 days at 33° C., class symbols, read-out: EC50
[6] = Severe acute respiratory syndrome coronavirus 2, Vero C1008, 96 h, read-out: VeroE6 + CP (EC50)
[7] = Severe acute respiratory syndrome coronavirus 2, Vero C1008, 96 h; read-out: VeroE6 + CP (EC50)
[8] = HRV3C, duplex assay, 30 mins preincubation, class symbols, read-out: HRV IC50

SMILES	IC50 (SARS-Cov-2 3CLpro; [4]) [nM]	EC50 [1, 5] [nM]	CC50 at 6 days [2] [nM]	EC50 [3, 6] [nM]	IC50 (human cathepsin L) [nM]	EC50 [3, 7] [nM]	IC50 (HRV3C; [8]) [nM]	EC50 ([1]; Betacoronavirus 1, OC43, HeLa) [nM]	IC50 (SARS-Cov-2 3CLpro) [nM]	IC50 (HRV3C; read-out: HRV IC50) [nM]	IC50 (HRV3C) [nM]
O=C(NC1CC1)C(=O)[C@H](C[C@@H]1CCNC1=O)NC(=O)[C@@H]1CC2(CCN1C(=O)[C@H]1C[C@@]13CCCc1ccccc13)CC2 (relative stereo) [Compound 34A, (S)—N—((S)-4-(cyclopropylamino)-3,4-dioxo-1-((S)-2-oxopyrrolidin-3-yl)butan-2-yl)-6-((1S*,2S*)-3′,4′-dihydro-2′H-spiro[cyclopropane-1,1′-naphthalene]-2-carbonyl)-6-azaspiro[2.5]octane-5-carboxamide]	200 to 2000	100 to 1000	≥ 100000	1000 to 10000	1000 to 10000						
O=C(NC1CC1)C(=O)[C@H](C[C@@H]1CCNC1=O)NC(=O)[C@@H]1CC2(CCN1C(=O)[C@@H]1C[C@]13CCCc1ccccc13)CC2 (relative stereo) [Compound 34B]	20 to 200	100 to 1000	10000 to 100000		1000 to 10000	< 1000					
Cn1ncc2c1CC(C(=O)N1CCC3(CC3)C[C@H]1C(=O)NC(C[C@@H]1CCNC1=O)C(=O)C(=O)NC1CC1)CC2 (stereo partly drawn) [Compound 14, (5S)—N-(4-(cyclopropylamino)-3,4-dioxo-1-((S)-2-oxopyrrolidin-3-yl)butan-2-yl)-6-(1-methyl-4,5,6,7-tetrahydro-1H-indazole-6-carbonyl)-6-azaspiro[2.5]octane-5-carboxamide]	20 to 200		≥ 100000		≥ 10000	10000 to 100000	200 to 2000	> 10000			
Cc1ccc2cc(C(=O)N3CCC4(CC4)C[C@H]3C(=O)N[C@@H](C[C@@H]3CCNC3=O)C(=O)C(=O)NC3CC3)sc2c1 [Compound 15, (3S)—N-cyclopropyl-3-{[(5S)-6-(6-methyl-1-benzothiophene-2-carbonyl)-6-azaspiro[2.5]octan-5-yl]formamido}-2-oxo-4-[(3S)-2-oxopyrrolidin-3-yl]butanamide]	< 20	100 to 1000	≥ 100000		1000 to 10000	< 1000	2000 to 20000				
O=C(NC1CC1)C(=O)[C@H](C[C@@H]1CCNC1=O)NC(=O)[C@@H]1CC2(CCN1C(=O)c1ccc3c(c1)OCO3)CC2 [Compound 16, (3S)-3-{[(5S)-6-(2H-1,3-benzodioxole-5-carbonyl)-6-azaspiro[2.5]octan-5-yl]formamido}-N-cyclopropyl-2-oxo-4-[(3S)-2-oxopyrrolidin-3-yl]butanamide]		1000 to 10000	≥ 100000		≥ 10000	1000 to 10000	2000 to 20000		20 to 200		
Cn1nc(C(=O)N2CCC3(CC3)C[C@H]2C(=O)NC(C[C@@H]2CCNC2=O)C(=O)C(=O)NC2CC2)cc1-c1ccccc1 (stereo partly drawn) [Compound 17, (5S)—N-(4-(cyclopropylamino)-3,4-dioxo-1-((S)-2-oxopyrrolidin-3-yl)butan-2-yl)-6-(1-methyl-5-phenyl-1H-pyrazole-3-carbonyl)-6-azaspiro[2.5]octane-5-carboxamide]	200 to 2000	1000 to 10000	≥ 100000		≥ 10000	1000 to 10000	2000 to 20000				
O=C(NC1CC1)C(=O)C(C[C@@H]1CCNC1=O)NC(=O)[C@@H]1CC2(CCN1C(=O)c1noc(-c3ccccc3)n1)CC2 (stereo partly drawn) [Compound 18, N-cyclopropyl-2-oxo-4-[(3S)-2-oxopyrrolidin-3-yl]-3-{[(5S)-6-(5-phenyl-1,2,4-oxadiazole-3-carbonyl)-6-azaspiro[2.5]octan-5-yl]formamido}butanamide]	20 to 200	1000 to 10000	≥ 100000		≥ 10000	1000 to 10000	200 to 2000				
O=C(NC1CC1)C(=O)C(C[C@@H]1CCNC1=O)NC(=O)[C@@H]1CC2(CCN1C(=O)c1cc3cccc4c3n1CCC4)CC2 (stereo partly drawn) [Compound 19, 3-{[(5S)-6-{1-azatricyclo[6.3.1.0^{4,12}]dodeca-2,4(12),5,7-tetraene-2-carbonyl}-6-azaspiro[2.5]octan-5-yl]formamido}-N-cyclopropyl-2-oxo-4-[(3S)-2-oxopyrrolidin-3-yl]butanamide]	< 20	1000 to 10000	≥ 100000		1000 to 10000	< 1000	200 to 2000				
O=C(NC1CC1)C(=O)[C@H](C[C@@H]1CCNC1=O)NC(=O)[C@@H]1CC2(CCN1C(=O)c1cn3ccccc3n1)CC2 [Compound 20, (3S)—N-cyclopropyl-3-{[(5S)-6-{imidazo[1,2-a]pyridine-2-carbonyl}-6-azaspiro[2.5]octan-5-yl]formamido}-2-oxo-4-[(3S)-2-oxopyrrolidin-3-yl]butanamide]	200 to 2000		≥ 100000		≥ 10000	> 50000		> 10000		> 10000	
O=C(NC1CC1)C(=O)[C@H](C[C@@H]1CCNC1=O)NC(=O)[C@@H]1CC2(CCN1C(=O)c1ccc3ccccc3c1)CC2 [Compound 21, (S)-6-(2-naphthoyl)-N—((S)-4-(cyclopropylamino)-3,4-dioxo-1-((S)-2-oxopyrrolidin-3-yl)butan-2-yl)-6-azaspiro[2.5]octane-5-carboxamide]	< 20	100 to 1000	≥ 100000		1000 to 10000	< 1000	200 to 2000				
O=C(NC1CC1)C(=O)C(C[C@@H]1CCNC1=O)NC(=O)[C@@H]1CC2(CCN1C(=O)c1cc3ccccc3n1-c1ccccc1)CC2 (stereo partly drawn) [Compound 22, N-cyclopropyl-2-oxo-4-[(3S)-2-oxopyrrolidin-3-yl]-3-{[(5S)-6-(1-phenylindole-2-carbonyl)-6-azaspiro[2.5]octan-5-yl]formamido}butanamide]	< 20	100 to 1000	10000 to 100000	< 1000	≥ 10000						200 to 2000
O=C(NC1CC1)C(=O)C(C[C@@H]1CCNC1=O)NC(=O)[C@@H]1CC2(CCN1C(=O)c1nc3ccccc3s1)CC2 (stereo partly drawn) [Compound 23, 3-{[(5S)-6-(1,3-benzothiazole-2-carbonyl)-6-azaspiro[2.5]octan-5-yl]formamido}-N-cyclopropyl-2-oxo-4-[(3S)-2-oxopyrrolidin-3-yl]butanamide]	20 to 200	100 to 1000	≥ 100000		≥ 10000	1000 to 10000	2000 to 20000				
O=C(NC1CC1)C(=O)C(C[C@@H]1CCNC1=O)NC(=O)[C@@H]1CC2(CCN1C(=O)c1cnn(-c3ccccc3)n1)CC2 (stereo partly shown) [Compound 24]	200 to 2000	1000 to 10000	≥ 100000		≥ 10000	1000 to 10000	200 to 2000				
O=C(NC1CC1)C(=O)C(C[C@@H]1CCNC1=O)NC(=O)[C@@H]1[C@@H]2C[C@@H](CC23CC3)N1C(=O)c1cc2ccccc2s1 (stereo partly drawn) [Compound 25, 3-[(1R,4S,6S)-5-(1-benzothiophene-2-carbonyl)-5-azaspiro[bicyclo[2.2.1]heptane-2,1′-cyclopropan]-6-ylformamido]-N-cyclopropyl-2-oxo-4-[(3S)-2-oxopyrrolidin-3-yl]butanamide]	20 to 200	1000 to 10000	≥ 100000		≥ 10000	1000 to 10000	200 to 2000				
